Source: patent publication US6399542B1, “Alkoxyimino-substituted bicyclic compounds compositions containing the same and method of making such compounds” (Agro-Kanesho Co., Ltd., priority 1997, dated 2002)
Where “and” joins values, the source holds several entries; their conditions need not be identical. Equal values may be shown once.

Test system: Psecidoperonospora cubensis
Test: Effect on Cucumber downy mildew (preventive spray test)
Type: in vivo
Details: conc. of active ingredient 4 ppm, 7 days after inoculation

SMILES	Preventive rate (%)
CNC(=O)C(=NOC)c1ccccc1COc1ccc2c(c1C)CC(C)C2=NOC (racemic) [f-4]	100
CNC(=O)C(=NOC)c1ccccc1COc1cc2c(cc1C)C(=NOC)C(C)C2 (single isomer, unassigned) [f-11]	100
C=CCON=C1COc2c1ccc(OCc1ccccc1/C(=N\OC)C(=O)NC)c2C [a-60]	100
C=C(Cl)CON=C1COc2c1ccc(OCc1ccccc1/C(=N\OC)C(=O)NC)c2C [a-64]	100
CON=C1CCc2cc(OCc3ccccc3C(=NOC)C(=O)OC)c(C)cc21 [e-26]	75
CNC(=O)C(=NOC)c1ccccc1COc1ccc2c(c1)CCC2=NOCC=CCl [e-58]	100
C#CCON=C1CCc2c1ccc(OCc1ccccc1C(=NOC)C(=O)NC)c2C [e-61]	100

Same assay, conditions: conc. of active ingredient 20 ppm, 7 days after inoculation

SMILES	Preventive rate (%)
CNC(=O)C(=NOC)c1ccccc1COc1ccc2c(c1C)CC(C)C2=NOC (racemic) [f-4]	100
CNC(=O)C(=NOC)c1ccccc1COc1cc2c(cc1C)C(=NOC)C(C)C2 (single isomer, unassigned) [f-11]	100
C=CCON=C1COc2c1ccc(OCc1ccccc1/C(=N\OC)C(=O)NC)c2C [a-60]	100
C=C(Cl)CON=C1COc2c1ccc(OCc1ccccc1/C(=N\OC)C(=O)NC)c2C [a-64]	100
CNC(=O)/C(=N/OC)c1ccccc1COc1ccc2c(c1C)OCC2=NOCC=C(C)C [a-67]	100
CO/C=C(/C(=O)OC)c1ccccc1COc1ccc2c(c1)OCCC2=NOC [c-2]	97
CON=C1CCc2cc(OCc3ccccc3C(=NOC)C(=O)OC)c(C)cc21 [e-26]	100
CNC(=O)C(=NOC)c1ccccc1COc1ccc2c(c1)CCC2=NOCC=CCl [e-58]	100
C#CCON=C1CCc2c1ccc(OCc1ccccc1C(=NOC)C(=O)NC)c2C [e-61]	100

Same assay, conditions: conc. of active ingredient 100 ppm, 7 days after inoculation

SMILES	Preventive rate (%)
CNC(=O)C(=NOC)c1ccccc1COc1ccc2c(c1C)CC(C)C2=NOC (racemic) [f-4]	100
CNC(=O)C(=NOC)c1ccccc1COc1cc2c(cc1C)C(=NOC)C(C)C2 (single isomer, unassigned) [f-11]	100
C=CCON=C1COc2c1ccc(OCc1ccccc1/C(=N\OC)C(=O)NC)c2C [a-60]	100
C=C(Cl)CON=C1COc2c1ccc(OCc1ccccc1/C(=N\OC)C(=O)NC)c2C [a-64]	100
CNC(=O)/C(=N/OC)c1ccccc1COc1ccc2c(c1C)OCC2=NOCC=C(C)C [a-67]	100
CO/C=C(/C(=O)OC)c1ccccc1COc1ccc2c(c1)OCCC2=NOC [c-2]	100
CON=C1CCc2cc(OCc3ccccc3C(=NOC)C(=O)OC)c(C)cc21 [e-26]	100
CNC(=O)C(=NOC)c1ccccc1COc1ccc2c(c1)CCC2=NOCC=CCl [e-58]	100
C#CCON=C1CCc2c1ccc(OCc1ccccc1C(=NOC)C(=O)NC)c2C [e-61]	100

Test system: Phytophthora infestans
Test: not given
Type: in vivo
Details: Tomato late blight; conc. of active ingredient 4 ppm; 5 days after inoculation

SMILES	Preventive rate (%)
CNC(=O)C(=NOC)c1ccccc1COc1cc2c(cc1C)C(=NOC)C(C)C2 (single isomer, unassigned) [f-11]	100
CO/C=C(/C(=O)OC)c1ccccc1COc1ccc2c(c1)OCCC2=NOC [c-2]	84

Same assay, conditions: Tomato late blight; conc. of active ingredient 20 ppm; 5 days after inoculation

SMILES	Preventive rate (%)
CNC(=O)C(=NOC)c1ccccc1COc1cc2c(cc1C)C(=NOC)C(C)C2 (single isomer, unassigned) [f-11]	100%
C=CCON=C1COc2c1ccc(OCc1ccccc1/C(=N\OC)C(=O)NC)c2C [a-60]	97%
C=C(Cl)CON=C1COc2c1ccc(OCc1ccccc1/C(=N\OC)C(=O)NC)c2C [a-64]	84%
CNC(=O)/C(=N/OC)c1ccccc1COc1ccc2c(c1C)OCC2=NOCC=C(C)C [a-67]	88%
CO/C=C(/C(=O)OC)c1ccccc1COc1ccc2c(c1)OCCC2=NOC [c-2]	98%
CON=C1CCc2cc(OCc3ccccc3C(=NOC)C(=O)OC)c(C)cc21 [e-26]	97%
CNC(=O)C(=NOC)c1ccccc1COc1ccc2c(c1)CCC2=NOCC=CCl [e-58]	92% and 98%
C#CCON=C1CCc2c1ccc(OCc1ccccc1C(=NOC)C(=O)NC)c2C [e-61]	98%

Same assay, conditions: Tomato late blight; conc. of active ingredient 100 ppm; 5 days after inoculation

SMILES	Preventive rate (%)
CNC(=O)C(=NOC)c1ccccc1COc1cc2c(cc1C)C(=NOC)C(C)C2 (single isomer, unassigned) [f-11]	100
C=CCON=C1COc2c1ccc(OCc1ccccc1/C(=N\OC)C(=O)NC)c2C [a-60]	97
C=C(Cl)CON=C1COc2c1ccc(OCc1ccccc1/C(=N\OC)C(=O)NC)c2C [a-64]	100
CNC(=O)/C(=N/OC)c1ccccc1COc1ccc2c(c1C)OCC2=NOCC=C(C)C [a-67]	100
CO/C=C(/C(=O)OC)c1ccccc1COc1ccc2c(c1)OCCC2=NOC [c-2]	98
CON=C1CCc2cc(OCc3ccccc3C(=NOC)C(=O)OC)c(C)cc21 [e-26]	100
CNC(=O)C(=NOC)c1ccccc1COc1ccc2c(c1)CCC2=NOCC=CCl [e-58]	100
C#CCON=C1CCc2c1ccc(OCc1ccccc1C(=NOC)C(=O)NC)c2C [e-61]	100

Test system: Puccinia recondita
Test: Effect on Wheat brown rust (preventive spray test)
Type: in vivo
Details: conc. of active ingredient 4 ppm, 7 days after inoculation

SMILES	Preventive rate (%)
CNC(=O)C(=NOC)c1ccccc1COc1cc2c(cc1C)C(=NOC)C(C)C2 (single isomer, unassigned) [f-11]	100
C=CCON=C1COc2c1ccc(OCc1ccccc1/C(=N\OC)C(=O)NC)c2C [a-60]	100
C=C(Cl)CON=C1COc2c1ccc(OCc1ccccc1/C(=N\OC)C(=O)NC)c2C [a-64]	100
CNC(=O)/C(=N/OC)c1ccccc1COc1ccc2c(c1C)OCC2=NOCC=C(C)C [a-67]	100
CO/C=C(/C(=O)OC)c1ccccc1COc1ccc2c(c1)OCCC2=NOC [c-2]	93
C#CCON=C1CCc2c1ccc(OCc1ccccc1C(=NOC)C(=O)NC)c2C [e-61]	100

Same assay, conditions: conc. of active ingredient 20 ppm, 7 days after inoculation

SMILES	Preventive rate (%)
CNC(=O)C(=NOC)c1ccccc1COc1cc2c(cc1C)C(=NOC)C(C)C2 (single isomer, unassigned) [f-11]	100
C=CCON=C1COc2c1ccc(OCc1ccccc1/C(=N\OC)C(=O)NC)c2C [a-60]	100
C=C(Cl)CON=C1COc2c1ccc(OCc1ccccc1/C(=N\OC)C(=O)NC)c2C [a-64]	100
CNC(=O)/C(=N/OC)c1ccccc1COc1ccc2c(c1C)OCC2=NOCC=C(C)C [a-67]	100
CO/C=C(/C(=O)OC)c1ccccc1COc1ccc2c(c1)OCCC2=NOC [c-2]	100
CON=C1CCc2cc(OCc3ccccc3C(=NOC)C(=O)OC)c(C)cc21 [e-26]	98
CNC(=O)C(=NOC)c1ccccc1COc1ccc2c(c1)CCC2=NOCC=CCl [e-58]	100
C#CCON=C1CCc2c1ccc(OCc1ccccc1C(=NOC)C(=O)NC)c2C [e-61]	100

Same assay, conditions: conc. of active ingredient 100 ppm, 7 days after inoculation

SMILES	Preventive rate (%)
CNC(=O)C(=NOC)c1ccccc1COc1cc2c(cc1C)C(=NOC)C(C)C2 (single isomer, unassigned) [f-11]	100
C=CCON=C1COc2c1ccc(OCc1ccccc1/C(=N\OC)C(=O)NC)c2C [a-60]	100
C=C(Cl)CON=C1COc2c1ccc(OCc1ccccc1/C(=N\OC)C(=O)NC)c2C [a-64]	100
CNC(=O)/C(=N/OC)c1ccccc1COc1ccc2c(c1C)OCC2=NOCC=C(C)C [a-67]	100
CO/C=C(/C(=O)OC)c1ccccc1COc1ccc2c(c1)OCCC2=NOC [c-2]	100
CON=C1CCc2cc(OCc3ccccc3C(=NOC)C(=O)OC)c(C)cc21 [e-26]	98
CNC(=O)C(=NOC)c1ccccc1COc1ccc2c(c1)CCC2=NOCC=CCl [e-58]	100
C#CCON=C1CCc2c1ccc(OCc1ccccc1C(=NOC)C(=O)NC)c2C [e-61]	100

Test system: Erysiphe graminis
Test: Effects on Barley powdery mildew (preventive spray test)
Type: in vivo
Details: conc. of active ingredient 4 ppm, lesions counted seven days after inoculation

SMILES	Preventive rate (%)
CNC(=O)C(=NOC)c1ccccc1COc1cc2c(cc1C)C(=NOC)C(C)C2 (single isomer, unassigned) [f-11]	100
C=C(Cl)CON=C1COc2c1ccc(OCc1ccccc1/C(=N\OC)C(=O)NC)c2C [a-64]	94

Same assay, conditions: conc. of active ingredient 20 ppm, lesions counted seven days after inoculation

SMILES	Preventive rate (%)
CNC(=O)C(=NOC)c1ccccc1COc1cc2c(cc1C)C(=NOC)C(C)C2 (single isomer, unassigned) [f-11]	100
C=CCON=C1COc2c1ccc(OCc1ccccc1/C(=N\OC)C(=O)NC)c2C [a-60]	100
C=C(Cl)CON=C1COc2c1ccc(OCc1ccccc1/C(=N\OC)C(=O)NC)c2C [a-64]	98
CO/C=C(/C(=O)OC)c1ccccc1COc1ccc2c(c1)OCCC2=NOC [c-2]	100
CON=C1CCc2cc(OCc3ccccc3C(=NOC)C(=O)OC)c(C)cc21 [e-26]	100
CNC(=O)C(=NOC)c1ccccc1COc1ccc2c(c1)CCC2=NOCC=CCl [e-58]	100
C#CCON=C1CCc2c1ccc(OCc1ccccc1C(=NOC)C(=O)NC)c2C [e-61]	98

Same assay, conditions: conc. of active ingredient 100 ppm, lesions counted seven days after inoculation

SMILES	Preventive rate (%)
CNC(=O)C(=NOC)c1ccccc1COc1cc2c(cc1C)C(=NOC)C(C)C2 (single isomer, unassigned) [f-11]	100
C=CCON=C1COc2c1ccc(OCc1ccccc1/C(=N\OC)C(=O)NC)c2C [a-60]	100
C=C(Cl)CON=C1COc2c1ccc(OCc1ccccc1/C(=N\OC)C(=O)NC)c2C [a-64]	100
CO/C=C(/C(=O)OC)c1ccccc1COc1ccc2c(c1)OCCC2=NOC [c-2]	100
CON=C1CCc2cc(OCc3ccccc3C(=NOC)C(=O)OC)c(C)cc21 [e-26]	100
CNC(=O)C(=NOC)c1ccccc1COc1ccc2c(c1)CCC2=NOCC=CCl [e-58]	100

Test system: Chochliobolus miyabeanus
Test: Effect on Rice brown spot (preventive spray test)
Type: in vivo
Details: conc. of active ingredient 4 ppm, 7 days after inoculation

SMILES	Preventive rate (%)
CNC(=O)C(=NOC)c1ccccc1COc1ccc2c(c1C)CC(C)C2=NOC (racemic) [f-4]	68
C#CCON=C1CCc2c1ccc(OCc1ccccc1C(=NOC)C(=O)NC)c2C [e-61]	84

Same assay, conditions: conc. of active ingredient 20 ppm, 7 days after inoculation

SMILES	Preventive rate (%)
CNC(=O)C(=NOC)c1ccccc1COc1ccc2c(c1C)CC(C)C2=NOC (racemic) [f-4]	70
CON=C1CCc2cc(OCc3ccccc3C(=NOC)C(=O)OC)c(C)cc21 [e-26]	71
C#CCON=C1CCc2c1ccc(OCc1ccccc1C(=NOC)C(=O)NC)c2C [e-61]	90

Same assay, conditions: conc. of active ingredient 100 ppm, 7 days after inoculation

SMILES	Preventive rate (%)
CNC(=O)C(=NOC)c1ccccc1COc1ccc2c(c1C)CC(C)C2=NOC (racemic) [f-4]	90
CON=C1CCc2cc(OCc3ccccc3C(=NOC)C(=O)OC)c(C)cc21 [e-26]	91
C#CCON=C1CCc2c1ccc(OCc1ccccc1C(=NOC)C(=O)NC)c2C [e-61]	90

Test system: Pyricularia oryzae
Test: not given
Type: in vivo
Details: Rice blast; conc. of active ingredient 4 ppm; 7 days after inoculation

SMILES	Preventive rate (%)
CNC(=O)C(=NOC)c1ccccc1COc1cc2c(cc1C)C(=NOC)C(C)C2 (single isomer, unassigned) [f-11]	72

Same assay, conditions: Rice blast; conc. of active ingredient 20 ppm; 7 days after inoculation

SMILES	Preventive rate (%)
CNC(=O)C(=NOC)c1ccccc1COc1cc2c(cc1C)C(=NOC)C(C)C2 (single isomer, unassigned) [f-11]	83
C=CCON=C1COc2c1ccc(OCc1ccccc1/C(=N\OC)C(=O)NC)c2C [a-60]	86

Same assay, conditions: Rice blast; conc. of active ingredient 100 ppm; 7 days after inoculation

SMILES	Preventive rate (%)
CNC(=O)C(=NOC)c1ccccc1COc1cc2c(cc1C)C(=NOC)C(C)C2 (single isomer, unassigned) [f-11]	100
C=CCON=C1COc2c1ccc(OCc1ccccc1/C(=N\OC)C(=O)NC)c2C [a-60]	91
